Activity calls are given as the source filed them.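 Rule for the calls: active = a tumor-causing dose value with its tumor site reported for any sex and species group of a rodent or other animal cancer study; inconclusive = only studies judged inadequate by the national testing program; inactive = tested in at least one study, none positive.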
Assay: DSSTox (CPDBAS) Carcinogenic Potency Database Summary SingleCellCall Results
Settings: animal chronic carcinogenicity bioassays, CPDB summary call
Procedure, shortened: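 Categorical carcinogenicity call compiled from published chronic rodent and other animal cancer bioassays; based on the most positive result across experiments for each sex-species, assigned on minimal evidence for or against activity.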

| SMILES | outcome |
| --- | --- |
| CC[C@H](C)[C@H]1O[C@]2(CC[C@@H]1C)C[C@@H]1C[C@@H](C/C=C(\C)[C@@H](O[C@H]3C[C@H](OC)[C@@H](O[C@H]4C[C@H](OC)[C@@H](O)[C@H](C)O4)[C@H](C)O3)[C@@H](C)/C=C/C=C3\CO[C@@H]4[C@H](O)C(C)=C[C@@H](C(=O)O1)[C@]34O)O2 | inactive |
| CC1=CC(=O)NS(=O)(=O)O1 | inactive |
| Nc1ccc2ccccc2c1 | active |
| CC(=O)Nc1ccc(C(=O)CCl)cc1 | inactive |
| C/C=C1/C[C@@H](C)[C@](O)(CO)C(=O)OCC2=CC[N+]3([O-])CC[C@@H](OC1=O)[C@@H]23 (stereo not given in full) | active |
| NC(=O)N(CCO)N=O | active; inactive |
| Cc1cc(O)c2c(c1O)C(=O)C13C(=C2O)C(=O)C2C(O)C1C1C(O)C3C(=O)C3=C(O)c4c(O)cc(C)c(O)c4C(=O)C321 (stereo not given) | active |
| CCCCCN(N=O)C(=N)N[N+](=O)[O-] | inactive |
| ClC#CCl | active |
| [O-][Cl+]O | inactive; active |
| C=CC | inactive |
| CC(=O)NCc1nc(-c2ccc([N+](=O)[O-])o2)no1 | active |
| O=[N+]([O-])c1ccc(NCCO)c(OCCO)c1 | inactive |
| CC1=C(/C=C/C(C)=C/C=C/C(C)=C/C=C/C=C(C)/C=C/C=C(C)/C=C/C2=C(C)CCCC2(C)C)C(C)(C)CCC1 | inactive |
| ClCc1ccccn1 | inactive |
| C[C@]12C=CC(=O)C=C1CC[C@@H]1[C@@H]2[C@@H](O)C[C@@]2(C)[C@H]1CC[C@]2(O)C(=O)COC(=O)CCCc1ccc(N(CCCl)CCCl)cc1 | active |
| CC(O)CNCC(C)O (stereo not given) | inactive |
| CCN=[N+](C)[O-] | active |
| S=C(SN1CCOCC1)N1CCOCC1 | active |
| C[C@]12CC[C@@H]3c4ccc(O)cc4CC[C@H]3[C@@H]1CC[C@@H]2O | inactive |
| Oc1ccc(O)cc1 | active |
| O=S(=O)(O)NC1CCCCC1 | active |
| CCN(CC)C(=S)[S-].CCN(CC)C(=S)[S-].[Zn+2] | inactive |

| SMILES | outcome |
| --- | --- |
| CCCCNC(=O)NS(=O)(=O)c1ccc(C)cc1 | inactive |
| Nc1ccc(N(CCO)CCO)cc1 | inactive |
| N[C@@H](Cc1ccc(N(CCCl)CCCl)cc1)C(=O)O | active |
| O=P(O)(O)O | inactive; active |
| O=NN(CCCl)C(=O)N[C@@H]1[C@@H](O)[C@H](O)[C@@H](CO)O[C@@H]1O | active |
| ClC1=C(Cl)[C@@]2(Cl)[C@@H]3[C@@H](Cl)[C@H](Cl)C[C@@H]3C1(Cl)C2(Cl)Cl | active |
| OC[P+](CO)(CO)CO | inactive; active |
| C/C=C1/C[C@@H](C)[C@@](C)(O)C(=O)OC/C2=C/CN(C)CC[C@@H](OC1=O)C2=O | active |
| Cc1[nH]cnc1CSCCN=C(NC#N)N(C)N=O | inactive; active |
| COc1ccc(C(c2ccc(OC)cc2)C(Cl)(Cl)Cl)cc1 | inactive; active |
| O=[N+]([O-])c1ccc2c(c1)Cc1ccccc1-2 | active |
| O=NN1CCC(O)C1 (stereo not given) | active |
| Cc1cccc2cccnc12 | inactive |
| CN(CCCC(=O)O)N=O | active |
| CCOP(=S)(OCC)Oc1ccc([N+](=O)[O-])cc1 | inactive; active |
| O=C1CN(/N=C/c2ccc([N+](=O)[O-])o2)C(=O)N1 | active |
| CC(=O)CN(N=O)C(N)=O | active |
| COc1cc(NC(=O)C(N=Nc2ccc(-c3ccc(N=NC(C(C)=O)C(=O)Nc4cc(OC)c(Cl)cc4OC)c(Cl)c3)cc2Cl)C(C)=O)c(OC)cc1Cl (stereo not given) | inactive |
| N=C1C=CC(=C(c2ccc(N)cc2)c2ccc(N)cc2)C=C1 | active |
| S=C=NCc1ccccc1 | inactive |
| Nc1c(Cl)cc(Cl)cc1Cl | active |
| CCOc1ccccc1C(N)=O | active |

From PubChem BioAssay AID1189 (EPA DSSTox, 2008)
